Measurements taken from US7241785B2, “Five-membered heterocyclic alkanoic acid derivative” (Takeda Pharmaceutical Company Limited, priority 2001, dated 2007).

How the values were obtained:
KKA^y mice [1] = experiment: Hypoglycemic and hypolipidemic (hypotriglyceridemic) actions in mice; assay type: in vivo; settings: Mus musculus, po, 96 h, 0.01% in powdery diet, four days
Description: Hypoglycemic and Hypolipidemic (Hypotriglyceridemic) Actions in Mice
Test compounds were mixed in a powdery diet (CE-2, Japan Clea) at the concentration of 0.01%, and freely given to KKA^y mice (11 to 12 weeks old, 5 mice per group), a model of type 2 diabetes mellitus, for four days. During this period, water was given freely. Blood was sampled from orbital venous plexus, and glucose and triglyceride levels in plasma separated from the blood were determined enzymatically using L type Wako Glu2 (Wako Pure Chemical Industries, Ltd.) or L type Wako TG.H (Wako Pure Chemical Industries, Ltd.), respectively.
In the Table, “hypoglycemic action (%)” represents a percent reduction (%) of the blood glucose level in the treatment group when the blood glucose level in the non-treatment group is taken as 100%. In addition, “hypolipidemic action (%)” represents a percent reduction (%) of the blood triglyceride level in the treatment group when the blood triglyceride level in the non-treatment group is taken as 100%.

PPARδ-RXRα heterodimer [2] = molecular target: T1, PPARδ-RXRα heterodimer (Homo sapiens, UniProt Q03181); experiment: PPARδ-RXRα heterodimer ligand activity (luciferase reporter, PPARδ:RXRα:4ERPP/CHO-K1 cells); assay type: cell-based; design: expressed in transfected cells; settings: concentration for 50% of maximum fold induction of luciferase, 48 hrs
T1 sequence (Q03181 1-441): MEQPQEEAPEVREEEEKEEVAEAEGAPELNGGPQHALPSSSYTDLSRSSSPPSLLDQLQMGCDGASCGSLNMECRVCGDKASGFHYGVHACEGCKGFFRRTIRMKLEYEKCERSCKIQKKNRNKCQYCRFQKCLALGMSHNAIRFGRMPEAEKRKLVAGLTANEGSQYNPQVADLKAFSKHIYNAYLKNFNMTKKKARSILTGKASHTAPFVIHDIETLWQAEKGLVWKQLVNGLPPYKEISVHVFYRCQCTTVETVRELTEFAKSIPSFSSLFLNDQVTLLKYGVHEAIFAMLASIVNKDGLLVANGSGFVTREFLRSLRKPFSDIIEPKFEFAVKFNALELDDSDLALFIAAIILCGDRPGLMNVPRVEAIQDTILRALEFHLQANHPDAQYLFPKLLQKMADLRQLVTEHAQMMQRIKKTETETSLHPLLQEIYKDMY
T1 sequence (P19793 1-462 partner): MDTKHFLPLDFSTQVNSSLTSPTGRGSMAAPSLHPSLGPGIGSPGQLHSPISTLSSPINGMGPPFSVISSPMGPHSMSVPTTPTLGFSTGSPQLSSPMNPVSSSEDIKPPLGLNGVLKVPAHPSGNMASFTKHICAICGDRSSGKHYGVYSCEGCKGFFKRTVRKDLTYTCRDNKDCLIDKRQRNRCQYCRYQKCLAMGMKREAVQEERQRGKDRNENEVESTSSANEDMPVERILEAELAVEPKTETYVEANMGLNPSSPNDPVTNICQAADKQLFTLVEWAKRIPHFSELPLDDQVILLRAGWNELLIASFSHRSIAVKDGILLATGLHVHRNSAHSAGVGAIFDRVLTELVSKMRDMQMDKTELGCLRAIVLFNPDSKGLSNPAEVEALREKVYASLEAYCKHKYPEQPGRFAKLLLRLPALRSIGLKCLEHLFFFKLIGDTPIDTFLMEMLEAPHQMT
Description: (§1) PPARδ-RXRα Heterodimer Ligand Activity
PPARδ:RXRα:4ERPP/CHO-K1 cells obtained in Reference Example 5a were cultured in HAM F12 medium (produced by NISSUI SEIYAKU) containing 10% fetal bovine serum (produced by Life Technologies, Inc., USA) and then seeded in a 96-well white plate (produced by Corning Costar Corporation, USA) at the density of 2×10^4 cells/well, and cultured in a CO2 gas incubator at 37° C. overnight.
After washing the 96 well white plate with PBS (Phosphate-buffered saline), 90 μl of HAM F12 medium containing 0.1% fatty acid-free bovine serum albumin (BSA) and 10 μl of test compound were added, and the cells were cultured in a CO2 gas incubator at 37° C. for 48 hrs. After removing the medium, 40 μl of PicaGene 7.5 (produced by Wako Pure Chemical Industries, Ltd.) was added. After stirring, the luciferase activity was determined using Lumistar (produced by BMG Labtechnologies GmbH, Germany).
The fold induction was calculated from the luciferase activity of each test compound when the luciferase activity in the non-treatment group is taken as 1. The values of the test compound concentration and the fold induction were analyzed using PRISM 2.01 (produced by GraphPad Software Inc. USA) to calculate the EC50 values, the effective concentration of a test compound for 50% of the maximum fold induction. […]

KKA^y mice [3] = experiment: Total cholesterol lowering action and plasma anti-arteriosclerosis index-enhancing action in mice; assay type: in vivo; settings: Mus musculus, po, 96 h, 0.01% in powdery diet, four days
Description: Total Cholesterol Lowering Action and Plasma Anti-Arteriosclerosis Index-Enhancing Action in Mice
Test compounds were mixed in a powdery diet (CE-2, Japan Clea concentration of 0.01%, and freely given to KKA^y mice (11 to 12 weeks old, 5 mice per group), a model of type 2 diabetes mellitus, for four days. During this period, water was given freely. Blood was sampled from orbital venous plexus, and components in plasma separated from the blood were determined. Total cholesterol levels were determined using L type Wako Cholesterol (Wako Pure Chemical Industries, Ltd.). Precipitation reagent for HDL cholesterol was added to a part of the plasma to precipitate non-HDL lipoprotein, and cholesterol (HDL cholesterol) in the resulting supernatant was determined. The plasma anti-arteriosclerosis index [(HDL cholesterol/total cholesterol)×100] was calculated using these cholesterol levels.
In the Table, “total cholesterol lowering action (%)” represents a percent reduction (%) of the total cholesterol level in the treatment group when the total cholesterol level in the non-treatment group is taken as 100%. In addition, “plasma anti-arteriosclerosis index-enhancing action (%)” represents a percent increase (%) of the plasma anti-arteriosclerosis index in the treatment group when the plasma anti-arteriosclerosis index in the non-treatment group is taken as 100%.

PPARδ-RXRα heterodimer [4] = molecular target: T1, PPARδ-RXRα heterodimer; experiment: PPARδ-RXRα heterodimer ligand activity (luciferase reporter, transfected COS-1 cells); assay type: cell-based; design: expressed in transfected cells; host or cells: COS-1 (transient, lipofectamine); settings: concentration for 50% of maximum fold induction of luciferase, 48 hrs
Description: as §1
The COS-1 cells obtained in Reference Example 9a were recovered, suspended in DMEM medium containing 0.1% fatty acid-free bovine serum albumin (BSA)(manufactured by Wako Pure Chemical Industries, Ltd.) (Nikken Biomedical Laboratory) and seeded in each well of a 96-well white plate (manufactured by Corning Costar Corporation, USA) at the density of 2×10^4 cells/well ([…]). Then, the test Compound ([…]) was added and the cells were cultured at 37° C., 5% CO2 for 48 hrs. The medium was removed from the 96-well white plate and PicaGine LT7.5 ([…], Wako Pure Chemical Industries) was added. After stirring, luciferase activity was measured using 1420 ARVO Multilabel Counter (Wallac)).
The fold induction was calculated from the luciferase activity of the test compound when the luciferase activity of the non-treatment group is taken as 1. The values of the test compound concentration and the fold induction were analyzed using PRISM 2.01 (produced by GraphPad Software Inc. USA) to calculate the EC50 values, the effective concentration of a test compound for 50% of the maximum fold induction.
Introduction of Plasmid and Reporter Plasmid for Expression of Human PPARδ, RXRα into COS-1 Cell […]

Cc1oc(-c2ccccc2)nc1COc1ccc(Sc2nc(-c3ccccc3)c(CCC(=O)O)s2)cc1 [Example 12, 3-[2-[4-(5-methyl-2-phenyl-4-oxazolylmethoxy)phenylthio]-4-phenyl-5-thiazolyl]propionic acid]
melting point: 121 to 122 °C
inhibition in vivo at 0.01 % in diet (KKA^y mice [1]; percent reduction of blood glucose level vs non-treatment group (100%), read-out: Hypoglycemic action (%)): 52%
inhibition in vivo at 0.01 % in diet (KKA^y mice [1]; percent reduction of blood triglyceride level vs non-treatment group (100%), read-out: Hypolipidemic action (%)): 56%
EC50 (PPARδ-RXRα heterodimer [2]): 670 nM
change in vivo at 0.01 % in diet (KKA^y mice [3]; percent increase of index [(HDL cholesterol/total cholesterol)×100] vs non-treatment group (100%)): 15%
inhibition in vivo at 0.01 % in diet (KKA^y mice [3]; percent reduction of total cholesterol level vs non-treatment group (100%)): 22%

Cc1nc(SCc2ccc(OCc3nc(-c4ccccc4)oc3C)cc2)sc1CC(=O)O [Example 58, [4-methyl-2-[4-(5-methyl-2-phenyl-4-oxazolylmethoxy)benzylthio]thiazol-5-yl]acetic acid]
EC50 (PPARδ-RXRα heterodimer [4]): 680 nM

Cc1nc(SCc2cccc(OCc3nc(-c4ccccc4)oc3C)c2)sc1CC(=O)O [Example 60, [4-methyl-2-[3-(5-methyl-2-phenyl-4-oxazolylmethoxy)benzylthio]thiazol-5-yl]acetic acid]
EC50 (PPARδ-RXRα heterodimer [4]): 260 nM
